Laboratory results: patent publication US20260217697A1, “COMPOUNDS COMPRISING HETEROARYL RINGS AND COMPOSITIONS AND METHODS THEREOF” (lonGen Therapeutics Co., Ltd., priority 2022, published 2026)

The compounds below were run against T1, hTRPV3 (Homo sapiens, UniProt Q8NET8) (assay: Whole-cell patch-clamp recording of hTRPV3 current in transfected HEK293T cells (2-APB induced)). Details: current induced by 300 μM 2-APB, compounds tested up to 10 μM, room temperature.
T1 construct: The commercially available plasmid with the full-length cDNA of hTRPV3 (791 aa) (NM_001258205.2); host or cells: HEK293T
T1 sequence (Q8NET8 1-791 isoform Q8NET8-2): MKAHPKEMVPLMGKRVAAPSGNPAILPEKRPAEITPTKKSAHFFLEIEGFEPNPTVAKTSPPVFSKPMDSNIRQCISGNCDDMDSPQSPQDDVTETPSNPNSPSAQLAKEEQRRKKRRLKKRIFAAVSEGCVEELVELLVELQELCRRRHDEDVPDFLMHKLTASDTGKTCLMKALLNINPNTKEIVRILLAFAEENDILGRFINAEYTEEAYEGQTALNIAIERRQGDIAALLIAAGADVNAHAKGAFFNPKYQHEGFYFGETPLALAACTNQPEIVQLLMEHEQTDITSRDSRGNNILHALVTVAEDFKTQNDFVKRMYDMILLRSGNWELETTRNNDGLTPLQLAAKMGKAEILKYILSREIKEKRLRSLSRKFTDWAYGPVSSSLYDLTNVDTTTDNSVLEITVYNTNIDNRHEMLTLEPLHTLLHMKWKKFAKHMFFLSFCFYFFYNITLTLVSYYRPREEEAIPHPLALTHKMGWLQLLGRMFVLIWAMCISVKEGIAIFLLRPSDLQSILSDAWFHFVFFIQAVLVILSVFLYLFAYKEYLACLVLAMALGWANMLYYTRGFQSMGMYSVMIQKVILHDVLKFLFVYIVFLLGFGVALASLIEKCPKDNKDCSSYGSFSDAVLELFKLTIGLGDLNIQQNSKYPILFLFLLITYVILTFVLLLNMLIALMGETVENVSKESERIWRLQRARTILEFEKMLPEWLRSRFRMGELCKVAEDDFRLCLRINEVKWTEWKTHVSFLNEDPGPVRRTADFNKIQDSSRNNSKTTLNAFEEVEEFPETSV
Assay type: cell-based
Method in brief: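 HEK293T cells transiently expressing full-length hTRPV3, recorded by whole-cell patch clamp 18 h post-transfection at room temperature, with 130 mM NaCl/0.3 mM EDTA/3 mM HEPES pH 7.4 on both sides. Holding potential 0 mV; 400-ms steps to +80 and −80 mV every 2 s. Block of 2-APB-evoked current, tested up to 10 μM, fitted to Hill equation for IC50.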

Structure (SMILES)	IC50 [nM]
CCC1(CC)Oc2ccc(C(F)(F)F)cc2-c2nc(NC(=O)c3c(OC)ncnc3OC)sc21 [compound 83, N-(4,4-diethyl-8-(trifluoromethyl)-4H-chromeno[4,3-d]thiazol-2-yl)-4,6-dimethoxypyrimidine-5-carboxamide]	≥ 10000
CCC1(CC)Oc2cc(C(C)=O)ccc2-c2nc(NC(=O)c3c(OC)ncnc3OC)sc21 [compound 117, N-(7-acetyl-4,4-diethyl-4H-chromeno[4,3-d]thiazol-2-yl)-4,6-dimethoxypyrimidine-5-carboxamide]	1000 to 10000
COc1ncnc(OC)c1C(=O)Nc1nc2c(s1)C1(COC1)Oc1cc(C(C)(C)C#N)ccc1-2 [compound 140, N-(7-(2-cyanopropan-2-yl)spiro[chromeno[4,3-d]thiazole-4,3′-oxetan]-2-yl)-4,6-dimethoxypyrimidine-5-carboxamide]	1000 to 10000
CNC(=O)C1CCC2(CC1)Oc1cc(C(F)(F)F)ccc1-c1nc(NC(=O)c3c(OC)ncnc3OC)sc12 (centres unmarked) [compound 103, 2-(4,6-dimethoxypyrimidine-5-carboxamido)-N-methyl-7-(trifluoromethyl)spiro[chromeno[4,3-d]thiazole-4,1′-cyclohexane]-4′-carboxamide]	1000 to 10000
CCC1(CC)Oc2cc(C(F)(F)F)ccc2-c2nc(N3CN(C)c4ncnc(OC)c4C3=O)sc21 [compound 143, 3-(4,4-diethyl-7-(trifluoromethyl)-4H-chromeno[4,3-d]thiazol-2-yl)-5-methoxy-1-methyl-2,3-dihydropyrimido[4,5-d]pyrimidin-4 (1H)-one]	≥ 10000
CCOC(=O)[C@H]1CC[C@@]2(CC1)Oc1cc(Br)ccc1-c1nc(NC(=O)c3c(OC)ncnc3OC)sc12 [compound 129]	100 to 1000
COc1ncnc(OC)c1C(=O)Nc1nc2c(s1)C1(CCN(C)CC1)Oc1cc(C(F)(F)F)ccc1-2 [compound 46, 4,6-dimethoxy-N-(1′-methyl-7-(trifluoromethyl)spiro[chromeno[4,3-d]thiazole-4,4′-piperidin]-2-yl)pyrimidine-5-carboxamide]	1000 to 10000
COc1ncnc(OC)c1C(=O)Nc1nc2c(cnc3cc(C(F)(F)F)ccc32)s1 [compound 72, 4,6-dimethoxy-N-(7-(trifluoromethyl)thiazolo[5,4-c]quinolin-2-yl)pyrimidine-5-carboxamide]	1000 to 10000

Now from value to compound:

IC50 [nM]	Structure (SMILES)
100 to 1000	COc1ncnc(OC)c1C(=O)Nc1nc2c(s1)C1(CCOC1)Oc1cc(C(F)(F)F)ccc1-2 (centres unmarked) [compound 21, 4,6-dimethoxy-N-(7-(trifluoromethyl)-4′,5′-dihydro-2′H-spiro[chromeno[4,3-d]thiazole-4,3′-furan]-2-yl)pyrimidine-5-carboxamide]
100 to 1000	COc1ncnc(OC)c1C(=O)Nc1nc2c(s1)C1(CCCC(C)(C)C1)Oc1cc(C(F)(F)F)ccc1-2 (centres unmarked) [compound 35, N-(3′,3′-dimethyl-7-(trifluoromethyl)spiro[chromeno[4,3-d]thiazole-4,1′-cyclohexan]-2-yl)-4,6-dimethoxypyrimidine-5-carboxamide]
100 to 1000	C=C(C)c1ccc2c(c1)OC(CC)(CC)c1sc(NC(=O)c3c(OC)ncnc3OC)nc1-2 [compound 55, N-(4,4-diethyl-7-(prop-1-en-2-yl)-4H-chromeno[4,3-d]thiazol-2-yl)-4,6-dimethoxypyrimidine-5-carboxamide]
100 to 1000	COc1ncnc(OC)c1C(=O)Nc1nc2c(s1)C1(COC(C)(C)OC1)Oc1cc(C(F)(F)F)ccc1-2 [compound 108, N-(2′,2′-dimethyl-7-(trifluoromethyl)spiro[chromeno[4,3-d]thiazole-4,5′-[1,3]dioxan]-2-yl)-4,6-dimethoxypyrimidine-5-carboxamide]
< 100	COc1ncnc(OC)c1C(=O)Nc1nc2c(s1)C1(CCN(C(=O)OC(C)(C)C)CC1)Oc1cc(C(F)(F)F)ccc1-2 [compound 27, tert-butyl 2-(4,6-dimethoxypyrimidine-5-carboxamido)-7-(trifluoromethyl)spiro[chromeno[4,3-d]thiazole-4,4′-piperidine]-1′-carboxylate]
100 to 1000	COc1ncnc(OC)c1C(=O)Nc1nc2c(s1)C1(CN(C(C)(C)CC(C)=O)C1)Oc1cc(C(F)(F)F)ccc1-2 [compound 167, 4,6-dimethoxy-N-(1-(2-methyl-4-oxopentan-2-yl)-7′-(trifluoromethyl)spiro[azetidine-3,4′-chromeno[4,3-d]thiazol]-2′-yl)pyrimidine-5-carboxamide]
